# According to US20160199393A1, “METHODS OF TREATING BRAIN ISCHEMIA OR HYPOXIA” (China Medical University, priority 2015, published 2016):
# Key:
# [1] = system: xCT; experiment: xCT mRNA and protein levels in homogenised ischemic brain tissue of rats with CIR; format: in vivo, rat; conditions: pretreatment 150 mg/kg, 12 h after reperfusion
# Protocol: Eight to ten-week-old male adult male Sprague-Dawley rats, C57BL/6J mice and xCT^−/− mice were anesthetized with 1.5% isoflurane in oxygen, allowed breathing spontaneously, and body temperature was maintained at 37° C. with a heat lamp during surgery for right middle cerebral artery ligation and bilateral common carotid artery clamping as previously described (Chen S T, Hsu C Y, Hogan E L, Maricq H, Balentine J D. A model of focal ischemic stroke in the rat: reproducible extensive cortical infarction. Stroke; a journal of cerebral circulation. 1986; 17(4):738-43, which is incorporated here by reference). Animals were subjected to transient cerebral ischemia for 90 min in rats and 2 h in mice.
# Q-PCR analysis was performed as described previously in Hsieh (Hsieh C H, Kuo J W, Lee Y J, Chang C W, Gelovani Liu R S. Construction of mutant TKGFP for real-time imaging of temporal dynamics of HIF-1 signal transduction activity mediated by hypoxia and reoxygenation in tumors in living mice. J Nucl Med. 2009; 50(12):2049-57, which is incorporated here by reference). […] The cDNA was then used for real time PCR quantification of mRNAs using the gene specific forward and reverse primers. […]
# To test this hypothesis, the mRNA and protein levels of xCT in ischemic brains with or without 2-methoxyestradiol (2ME2), an inhibitor of HIF-1, at 12 h after CIR were first determined. […]
# [2] = system: mouse xCT promoter; experiment: Mouse xCT promoter luciferase reporter assay in neurons and astrocytes; format: cell-based; conditions: 24 h incubation, DFO 100 μM, CoCl2 50 μM
# Source text: The multiple cloning sites (MCS) of pTA-Luc vector (Clontech) was inserted with the cDNA fragment bearing −2000 to +1 bp mouse or human xCT promoter to drive the expression of firefly luciferase gene as pTA-mxCTp-Luc or pTA-hxCTp-Luc. The mutant of hypoxia response element on mouse or human xCT promoter was generated in the pTA-mxCTp-Luc or pTA-hxCTp-Luc as template by Quick Change Site-directed Mutagenesis Kit (Stratagene).
# Cells were cotransfected with xCT promoter-driven reporter constructs with or without HRE mutation and Renilla reporter plasmids. At 24 h after transfection, the luciferase activity was examined by a dual luciferase reporter assay system (Promega) according to the manufacturers instructions, and firefly luciferase activity was normalized to the control renilla activity included in the kit. Luciferase activities are expressed as fold-increase over the luciferase activities in un-stimulated conditions.
# To test whether the xCT promoter would respond to HIF activation, the mouse xCT 2000-bp promoter was isolated and fused to firefly luciferase coding sequences for use in transient transfection assays with neurons and astrocytes. Normoxic neurons and astrocytes were treated with OGDR or incubated with desferrioxamine (DFO; 100 μM) or cobalt chloride (CoCl2; 50 μM) for 24 h. The DFO and CoCl2 mimics hypoxia by inducing transcription from HIF-1-dependent genes.
# [3] = system: NMDAR; conditions: for hyperfunction of NMDAR (binding radioactivity of 18F-FSAG): WT cortical cells, OGDR, 24 h after reperfusion, 10 μM (SAS 500 μM)
# [4] = target: T1, NMDAR (Mus musculus, UniProt P35438); format: in vivo; conditions: WT and xCT−/− mice with CIR, 12 h after reperfusion, compared to vehicle
# T1 construct: from tissue; host or cells: cerebral hemispheres of WT (C57BL/6J) and xCT-/- mice after CIR, in vivo/ex vivo
# Protocol: Animals received 29.6 MBq/kg of ^18F-FSAG in 100 μl of PBS via lateral tail vein injection, and then were euthanized by CO2/O2 asphyxiation at 30 min after injection. After sacrifice, selected tissues of interest were then removed and weighed, and the radioactivity was measured using a γ-counter. The percentage injected dose per gram (% ID/g) was then calculated.
# To determine in vivo activation of NMDAR, mice were injected with ^18F-FSAG at 12 h after reperfusion for ex vivo biodistribution studies and positron emission tomography (PET) imaging studies.
# [5] = system: SLC7A11 (xCT) mRNA; experiment: SLC7A11 mRNA level (Q-PCR) in primary cortical cells exposed to OGDR; format: cell-based, mouse; conditions: pretreatment with YC-1 5 μM
# [6] = target: T2, system xc− (Mus musculus, UniProt Q9WTR6); experiment: Extracellular glutamate content in WT cortical cells exposed to OGDR; format: cell-based; conditions: 24 h after reperfusion, 10 μM (SAS 500 μM)
# T2 construct: endogenous in cells; host or cells: primary cortical cells from E17 wild-type C57BL/6J mouse embryos, exposed to OGDR
# T2 sequence (Q9WTR6 1-502): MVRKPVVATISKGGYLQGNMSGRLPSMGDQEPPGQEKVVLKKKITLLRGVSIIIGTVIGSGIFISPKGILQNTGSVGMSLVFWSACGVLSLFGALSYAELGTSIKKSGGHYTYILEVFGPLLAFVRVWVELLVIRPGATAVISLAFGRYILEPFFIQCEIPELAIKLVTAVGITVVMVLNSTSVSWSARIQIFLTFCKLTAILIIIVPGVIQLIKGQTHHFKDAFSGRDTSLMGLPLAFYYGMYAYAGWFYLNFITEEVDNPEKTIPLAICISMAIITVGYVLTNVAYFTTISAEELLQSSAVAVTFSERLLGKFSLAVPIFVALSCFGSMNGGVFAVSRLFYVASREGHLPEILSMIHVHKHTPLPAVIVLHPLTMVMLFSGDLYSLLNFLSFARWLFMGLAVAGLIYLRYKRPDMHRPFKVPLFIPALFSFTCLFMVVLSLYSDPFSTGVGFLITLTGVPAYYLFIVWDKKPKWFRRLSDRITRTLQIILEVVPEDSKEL
# T2 sequence (P10852 1-526 partner): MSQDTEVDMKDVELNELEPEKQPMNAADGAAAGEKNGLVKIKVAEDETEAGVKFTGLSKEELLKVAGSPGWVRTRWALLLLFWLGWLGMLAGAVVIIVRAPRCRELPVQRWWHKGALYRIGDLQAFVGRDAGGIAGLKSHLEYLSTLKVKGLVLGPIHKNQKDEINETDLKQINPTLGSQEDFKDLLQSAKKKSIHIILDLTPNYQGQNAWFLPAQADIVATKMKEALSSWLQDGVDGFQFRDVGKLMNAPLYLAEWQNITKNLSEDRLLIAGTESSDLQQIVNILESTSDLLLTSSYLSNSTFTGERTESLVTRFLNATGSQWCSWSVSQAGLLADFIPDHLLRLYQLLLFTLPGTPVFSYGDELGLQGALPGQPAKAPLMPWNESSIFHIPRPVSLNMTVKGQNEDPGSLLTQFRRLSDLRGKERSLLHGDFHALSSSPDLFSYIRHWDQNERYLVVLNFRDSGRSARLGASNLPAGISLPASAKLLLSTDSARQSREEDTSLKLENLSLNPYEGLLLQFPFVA
# Protocol: (§1) Primary cortical cells were prepared from cerebral cortices of wild-type C57BL/6J or homozygote xCT^−/− mouse embryos in embryonic day 17 as previously described with modification (Goldberg M P, Choi D W. Combined oxygen and glucose deprivation in cortical cell culture: calcium-dependent and calcium-independent mechanisms of neuronal injury. The Journal of neuroscience: the official journal of the Society for Neuroscience, 1993; 13(8):3510-24, which is incorporated here by reference).
# [7] = system: neurons; experiment: Annexin V flow cytometric apoptosis assay after OGDR, neurons; format: cell-based, mouse; conditions: WT cortical cells, 24 h after reperfusion, 10 μM (SAS 500 μM)
# Protocol: (§2) Annexin V staining was performed to determine cell apoptosis using the Annexin V-FITC Apoptosis Detection Kit (Sigma-Aldrich) for 10 min at room temperature according to the manufacturers instructions, and then flow cytometric analysis was performed.
# (§3) The three-color staining flow cytometric assay using allophycocyanin-microtubule-associated protein 2 (MAP2) for neuron staining, phycoerythrin (PE)-GFAP for astrocyte staining and FITC-annexin V for apoptotic cell staining was performed to count the numbers of neurons, astrocytes, and apoptotic cells. FIGS. 21A and […] show the results of apoptosis in wild type (WT) and xCT^−/− cortical cells treated with OGDR at 24 h after reperfusion. *P<0.01 compared to WT without OGDR, Student's t-test. ^#P<0.01 compared to WT with OGDR, Student's t-test. From FIGS. 21A and 21B it was observed that that smaller numbers of apoptotic cells were present in xCT^−/− neurons and astrocytes after OGDR treatment.
# [8] = system: astrocytes; experiment: Annexin V flow cytometric apoptosis assay after OGDR, astrocytes; format: cell-based, mouse; conditions: WT cortical cells, 24 h after reperfusion, 10 μM (SAS 500 μM)
# Protocol: as §2, §3
# [9] = system: WT cortical cells; experiment: Lactate dehydrogenase (LDH) level in WT cortical cells after OGD/OGDR; format: cell-based, mouse; conditions: OGDR, 24 h after reperfusion, 10 μM (SAS 500 μM)
# Protocol: as §1
# The LDH assay was carried out at 24 hours after reperfusion. *P<0.01 compared to drugs-untreated cells (Un), one-way ANOVA. Error bars denote the standard deviation among triplicate experiments.
# [10] = target: T3, system xc− (Homo sapiens, UniProt Q9UPY5); conditions: Dixon et al., eLife 2014; cited from earlier work
# T3 sequence (Q9UPY5 1-501): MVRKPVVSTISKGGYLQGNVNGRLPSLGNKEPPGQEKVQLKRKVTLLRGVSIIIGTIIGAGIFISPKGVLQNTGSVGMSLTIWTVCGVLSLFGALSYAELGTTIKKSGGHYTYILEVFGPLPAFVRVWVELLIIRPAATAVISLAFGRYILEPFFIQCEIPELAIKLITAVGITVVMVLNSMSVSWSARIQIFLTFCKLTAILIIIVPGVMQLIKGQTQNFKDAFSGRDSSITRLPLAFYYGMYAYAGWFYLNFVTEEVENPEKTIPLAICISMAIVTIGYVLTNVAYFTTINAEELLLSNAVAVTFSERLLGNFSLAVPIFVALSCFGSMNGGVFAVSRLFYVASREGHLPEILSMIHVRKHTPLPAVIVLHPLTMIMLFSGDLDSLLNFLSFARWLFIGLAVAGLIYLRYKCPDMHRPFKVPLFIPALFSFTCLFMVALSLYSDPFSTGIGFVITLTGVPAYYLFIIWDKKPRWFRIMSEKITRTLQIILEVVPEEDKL
# T3 sequence (P08195 1-529 partner): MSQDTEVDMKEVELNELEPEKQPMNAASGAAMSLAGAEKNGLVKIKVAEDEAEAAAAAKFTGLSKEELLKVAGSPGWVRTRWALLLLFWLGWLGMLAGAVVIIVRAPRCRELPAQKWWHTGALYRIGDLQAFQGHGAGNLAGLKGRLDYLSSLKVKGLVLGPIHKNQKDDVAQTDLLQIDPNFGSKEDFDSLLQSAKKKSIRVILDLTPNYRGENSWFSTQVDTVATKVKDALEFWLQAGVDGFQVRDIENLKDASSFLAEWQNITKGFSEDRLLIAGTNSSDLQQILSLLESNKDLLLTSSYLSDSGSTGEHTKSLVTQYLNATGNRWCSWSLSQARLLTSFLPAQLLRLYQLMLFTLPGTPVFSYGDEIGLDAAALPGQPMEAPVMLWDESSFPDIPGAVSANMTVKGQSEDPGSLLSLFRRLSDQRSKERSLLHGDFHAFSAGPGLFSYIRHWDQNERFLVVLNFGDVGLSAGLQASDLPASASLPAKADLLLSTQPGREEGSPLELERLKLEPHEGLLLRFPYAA
compound,measurement,setting,value
"COc1cc2c(cc1O)CC[C@@H]1[C@@H]2CC[C@]2(C)[C@@H](O)CC[C@@H]12 [2ME2, 2-methoxyestradiol]",xCT mRNA expression level,[1],significantly inhibited
same,xCT protein expression level,[1],significantly inhibited
"[Cl][Co][Cl] [CoCl2, cobalt chloride]",transcriptional activation of xCT (reporter activity of mouse xCT promoter),[2],increased
"CC(=O)N(O)CCCCCNC(=O)CCC(=O)N(O)CCCCCNC(=O)CCC(=O)N(O)CCCCCN [DFO, desferrioxamine]",transcriptional activation of xCT (reporter activity of mouse xCT promoter),[2],increased
C[C@]12N[C@H](Cc3ccccc31)c1ccccc12 [MK801],binding of 18F-FSAG,"[3]; cortical cells, pretreatment 10 μM",blocked
same,18F-FSAG accumulation in ipsilateral and contralateral hemispheres,[4],significant reduction
OCc1ccc(-c2nn(Cc3ccccc3)c3ccccc23)o1 [YC-1],OGDR-increased SLC7A11 mRNA expression,[5],inhibited
CCOc1ccccc1-n1c(C(C)N2CCN(C(=O)COc3ccc(Cl)cc3)CC2)nc2ccccc2c1=O (stereo not drawn) [erastin],hyperfunction of NMDAR (binding radioactivity of 18F-FSAG),[3],inhibited
same,OGDR-induced glutamate release (extracellular glutamate content),[6],inhibited
same,apoptosis in neurons,[7],inhibited
same,apoptosis in astrocytes,[8],inhibited
same,LDH levels,[9],inhibited
Cc1ccc(NC(=O)c2ccc(CN3CCN(C)CC3)cc2)cc1Nc1nccc(-c2cccnc2)n1 [imatinib],system xc− inhibition activity,[10],lacking system xc^− inhibition activity
CNC(=O)c1cc(Oc2ccc(NC(=O)Nc3ccc(Cl)c(C(F)(F)F)c3)c(F)c2)ccn1 [regorafenib],hyperfunction of NMDAR (binding radioactivity of 18F-FSAG),[3],inhibited
same,OGDR-induced glutamate release (extracellular glutamate content),[6],inhibited
same,apoptosis in neurons,[7],inhibited
same,apoptosis in astrocytes,[8],inhibited
same,LDH levels,[9],inhibited
